For 87 compounds, melting point results are on record in a melting point compilation (Tetko et al.; mined from patent text by program, amines drawn as free bases though some values may be those of a salt).

Molecules are shown by their SMILES. Bounds are passed on as bounds.

The term melting point denotes the temperature, or range, at which the solid turns liquid.

`CC1(C)COc2cc(Cl)c(F)cc2C(O)(c2ccccn2)C1` (configuration not stated) came in with a melting point of 100 °C.

`Cc1oc(-c2ccccc2)nc1CCc1ccc(CCCC2SC(=O)NC2=O)cc1` (configuration not stated) returned a melting point of 99 to 100 °C.

Compound `C=CCc1cc(C(=O)OCC)ccc1OCC1(O)CN2CCC1CC2` (configuration not stated) had a melting point of 143 to 145 °C. The figure for `CCC(=O)c1ccc2cc(OC(C)C)ccc2c1` is 79 to 80 °C; for `Cc1[nH]cnc1C=C1CC2CCCn3c2c(c2ccccc23)C1=O` (configuration not stated) it is 289 to 290 °C; for `COC(=O)c1ccc(C(=O)Nc2ccc3c(c2)C(C)(C)CCC3(C)C)nc1` it is 176 to 177 °C. `COC(=O)c1cc2cccnc2cc1C(=O)OC`: the melting point was in the range of 101 to 102 °C. The figure for `CCc1ccc2c(c1)C=Cc1cc(C)ccc1C2c1cn(-c2ccnc(NCC(=O)Nc3nc(CC(=O)O)cs3)n2)c(=O)[nH]c1=O` (configuration not stated) is 217 °C; for `CCCOC(=O)c1cccc2c1S[C@@H](c1ccc(OC)cc1)[C@@H](OC(C)=O)C(=O)N2CCN(C)C` (racemic) it is 107 to 109 °C. `CSCCNC(=O)c1cccc(-c2cccc3c(C)c(Cc4cccc(C(F)(F)F)c4)oc23)c1` gave a melting point of 138 to 139 °C. Compound `CC(C)OC(=O)C1=C(c2cn(C)c3ccccc23)C(=O)NC1=O` gave a melting point of 199 to 202 °C. The compound `CCOC(=O)CNC(=O)CCCOc1ccc2nc3[nH]c(=O)[nH]c3cc2c1` showed a melting point of 274 to 276 °C.

Turning to `Cc1cc(NNC(=O)Nc2ccc(N(CCCl)CCCl)cc2)c2ccccc2n1`, the melting point was 235 to 236 °C.

Turning to `CCOC(=O)c1cnc2sccc2c1Sc1ccc(C)cc1`, the melting point is 60 to 63 °C. As for `Cc1c(OCCCCSCCn2c([N+](=O)[O-])cnc2C)ccnc1CNc1cnc2ccccc2c1`, the figure is 154 to 158 °C; as for `CCCc1nc(C)c2nnc3ccc(F)cc3n12`, 124 to 126 °C; as for `OC1CCN(Cc2nc(-c3ccc4c(c3)Nc3ccccc3S4)cs2)CC1`, 205 to 207 °C. As for `NC(=O)[C@H]1CCCCCC[C@H](CS)C(=O)N1` (relative stereo), the figure is 185 to 192 °C; as for `O=C(NCc1ccccc1)Nc1nnc(-c2ccc(CN3CCCCCC3)s2)s1`, 232 to 233 °C; as for `CCOC(=O)/C=C/c1c(-c2ccc(F)cc2)n(C(C)C)c(=O)c2ccccc12`, 167 to 169 °C. In the case of `Cc1cc(C)c2c(c1)N[C@@H](C(=O)O)[C@@H](C)C2=O` (relative stereo), the melting point was 156 to 157 °C. `O=C(NCCNCCNC(=O)C(F)(F)F)C(F)(F)F` had a melting point of 68 to 70 °C.

Regarding `COc1cc(F)c(C)cc1N`, the melting point was 108 to 110 °C. The figure for `CCCCCCCCCCOc1ccc(-c2ccc(C(=O)O)cc2)cc1` is 246 to 250 °C; for `CN1C(=O)C(NC(=O)Nc2cccc3ccccc23)N=C(c2ccccc2)c2ccccc21` (configuration not stated) it is 234 to 235 °C. `Cc1cccc(C)c1N1C(=O)C(=O)N(C)C1=S` displayed a melting point of 144 to 146 °C. As for `CCCNCCc1c[nH]c2ccc(NC(N)=O)cc12`, the figure is 146 to 147 °C; as for `CCCCCCCCCCCCCCCc1c([N+](=O)[O-])cc([N+](=O)[O-])c(O)c1[N+](=O)[O-]`, 53 to 56 °C; as for `CCOC(=O)Cn1c(=O)sc2cc(-c3ccccc3)c(Cl)cc21`, 130 to 131 °C. `Clc1cc(N2CCSCC2)nc(Cl)n1`: the melting point is 118 to 122 °C. As for `CC(C)CNC(=O)[C@H](C)C[C@H](O)[C@H](CC1CCCCC1)NC(=O)OC(C)(C)C`, the figure is 125 to 126 °C; as for `O=C(O)[C@H](Cc1ccccc1)NS(=O)(=O)N1CCOCC1`, 157 to 158 °C. `COc1ccccc1CC(=O)N1C[C@H]2C[C@H](CO)C[C@](O)(c3ccccc3OC)[C@H]2C1` (racemic) registered a melting point of 162 °C.

The compound `c1ccc(COc2ccc3c(C45CC6CC(CC(C6)C4)C5)noc3c2)cc1` showed a melting point of 132 °C.

For `CC(C)CN(C(=O)N(CCCl)N=O)C1(O)C(OC2CCCCC2)OC(CO)C1O` (configuration not stated), the melting point was 70 to 72 °C. In turn, `O=C(O)c1ccc(-c2cc(=O)n(-c3ccccc3)s2)cc1` had a melting point of 260 to 261 °C. Compound `O=C(O)[C@@H]1CN(CCn2c(=O)ccc3c(F)cc(F)cc32)CC[C@H]1NCc1cc2c(cn1)OCCO2` had a melting point of more than 190 °C.

Consider `Cc1ccccc1NC(=O)CN1CC2CCC(C1)N2S(=O)(=O)c1cccc2nsnc12`, for which the melting point was 169 to 170 °C. As for `CCOC(=O)c1cccc2c1Nc1ccc(C(=O)c3ccccc3)cc1N2Cc1ccccc1`, the figure is 134 to 136 °C; as for `N[C@@H]1C[C@H]2CC[C@@H]1N(c1cc3c(cc1F)c(=O)c(C(=O)O)cn3C1CC1)C2`, 267 to 270 °C; as for `Cc1c(-c2cc(C(F)(F)F)cc(C(F)(F)F)c2)c(F)cc2nc(N)nc(N)c12`, 224 to 225 °C. For `CC(C)OC(=O)c1cc(I)c(F)cc1Cl`, the melting point was 38 to 43 °C.

The compound `O=C1C(=O)c2ccccc2C2=C1SCC1(CCN(S(=O)(=O)c3cccc(Cl)c3)CC1)O2` yielded a melting point of 255 to 256 °C.

The compound `CN(C)Cc1ccc2cc(NC(=O)c3ccc(-c4ccc(Cl)cc4)cc3)ccc2c1` returned a melting point of 230 to 231 °C. As for `O=S(=O)(NCc1ccnnc1)c1cc(Br)cs1`, the figure is 120 to 122 °C. `CC(c1ccc(F)cc1)N1CCN(c2cc(Oc3cccc4ccncc34)ncn2)CC1` (configuration not stated): the melting point is 114 °C.

As for `COc1ccc(C2CCN(C(=O)CC(=O)O)CC2)cc1OC1CCCC1`, the melting point lay within 122 to 123 °C.

Compound `O=C(OCC1OC(n2cc(F)c(=O)[nH]c2=O)C(O)C1O)C1CCCN1C(=O)OCc1ccccc1` (configuration not stated) gave a melting point of 137 to 144 °C. `Cc1cc(C(O)(C(F)(F)F)C(F)(F)F)cc(C)c1OCCNCc1ccccc1` yielded a melting point of 117 to 120 °C. The figure for `O=c1c(-c2nc3ccccc3[nH]2)coc2ccccc12` is 154 °C. As for `O=C1OC(c2ccc(F)cc2)C(Cn2cncn2)(c2ccc(Cl)cc2Cl)O1` (configuration not stated), the figure is 191 to 192 °C; as for `COc1ccccc1N1CCN(CCn2c(=O)[nH]c3ccc(O)c(O)c3c2=O)CC1`, 223 to 227 °C.

The compound `CS(=O)(=O)ON=C(Cl)c1ccc(Cl)c(Cl)c1` came in with a melting point of 73 to 75 °C. Regarding `CC(CN(C)C)Oc1ccc(/C=C/C(=O)O)cc1` (configuration not stated), the melting point amounted to 235 °C. Take `O=[N+]([O-])c1ccccc1-c1nnc(-c2ccc(C3OCCO3)cc2)o1`: the melting point lay within 88 to 89 °C.

Regarding `CC(C)c1cccc(C(C)C)c1NC(=O)Nc1nnnn1Cc1ccccc1`, the melting point fell in the range of 195 to 197 °C. In turn, `CCOC(=S)c1ccc(C)c(-c2cc(C)no2)c1C` yielded a melting point of 72 to 74 °C.

Compound `COc1ccc2c(c1CC=C(C)C)OC(c1ccc(O)cc1O)CC2` (configuration not stated) displayed a melting point of 95 to 96 °C. Regarding `O=S1(=O)c2cccc3cccc(c23)N1CCN1CCC(CC2CNc3ccccc3C2)CC1` (configuration not stated), the melting point was found to be 134 °C. Compound `O=Cc1cccc(-c2cnc3cnc(-c4ccc(O)cc4)nc3c2)c1` displayed a melting point of 266 °C. The compound `NC(=O)N1C(=O)C(C(=O)c2cccs2)c2nc(Cl)ccc21` (configuration not stated) returned a melting point of 222 to 224 °C. Compound `CN1c2ccccc2-c2nc3ccc(Cl)cc3c3cc(OS(=O)(=O)C(F)(F)F)cc1c23` showed a melting point of 193 to 195 °C. `Cc1ccc2[nH]c3c(c2c1)CC(=O)Nc1cccnc1-3` came in with a melting point of more than 330 °C. Take `CCCCCCc1ccc(CCCCC(COC(C)=O)(COC(C)=O)NC(C)=O)cc1`: the melting point is 61 to 64 °C. The figure for `CCCCCc1cc(OC)c(C2=C[C@H]3CC[C@]2(CO)C3(C)C)c(OC)c1` is 26 to 27 °C; for `CCOCc1nc2c(N)nc3c4c2n1[C@@H](C)CN4CCC3` it is 164 to 166 °C.

For `C1CN(c2nc(NC3CC3)nc(C3CC3)n2)CCS1`, the melting point was 133 to 134 °C.

Compound `O=C(O)Cn1cc(Cc2nc3cc(C(F)(F)F)ccc3s2)c2ccccc21` came in with a melting point of 233 to 234 °C. The figure for `Oc1ccc2nc(-c3ccc(O)c(C45CC6CC(CC(C6)C4)C5)c3)[nH]c2c1` is 241 to 243 °C; for `CC(=O)Nn1c(-c2ccccc2)nc2cc(C(F)(F)F)ccc21` it is 150 to 154 °C. Turning to `O=C1N(c2ccc(C(F)(F)F)cc2)CN2C(c3ccc(Cl)cc3)C(c3ccccc3)CN12` (configuration not stated), the melting point lay within 184 to 187 °C. In the case of `O=c1oc(-c2ccccc2Cl)nn1-c1ccccc1C(F)(F)F`, the melting point lay within 100 to 102 °C. As for `COc1ccc(C(=O)Nc2ccccc2)cc1NC(=S)Nc1ccc(Cl)cc1`, the figure is 179 to 180 °C; as for `C=CCC(F)(F)C(O)C(CC(C)C)NC(=O)c1ccccc1` (configuration not stated), 110 °C. `CCc1nc(-c2cccc(C(=O)O)c2)c(-c2ccnc(N)c2)s1` registered a melting point of 273 to 274 °C. As for `Cc1ccc(C2COc3c(C)c(C)cc(C)c32)cc1` (configuration not stated), the figure is 65 to 66 °C; as for `Cc1ccc(Cl)cc1N1C(=O)CON(C)C1=S`, 100 to 102 °C. Take `Cc1ccc(C(=O)COc2cc(C)cc(C)c2C)nc1`: the melting point lay within 94 to 95 °C.

`COc1ccc2c3cc(C(=O)NCCc4ccc(Cl)cc4)ccc3n(CC3CCCCC3)c2c1` returned a melting point of 179 to 181 °C. As for `COc1ccc(-c2cc3cc(Cl)cc(Cl)c3o2)cc1`, the figure is 172 to 174 °C. As for `O=C(O)Cn1c(C(=O)O)cc(=O)c2c1C(=O)C(O)=C2`, the figure is more than 270 °C. In the case of `CCNc1nc(Nc2ccccc2)ncc1C=CC(=O)OCC`, the melting point fell in the range of 125 to 126 °C.

Regarding `CCOC(=O)c1ncn2c(-c3cccc(C(F)(F)F)c3)ccnc12`, the melting point is 232 to 234 °C. The figure for `CNC(=O)COC(=O)N1CCN(CCc2ccc3ccccc3c2)CC1` is 133 to 135 °C; for `Clc1ccc(OCc2nc3c(OCc4ccccc4)cccc3n2CCCC2CCN(CCCN3CCCCC3)CC2)cc1` it is 58 to 60 °C. The figure for `CC(C)(C)c1ccc(CCCCC(=O)CC2CCCCC2)cc1NC(=O)CC1c2ccccc2Oc2ccccc21` is 126 to 127 °C; for `COC(=O)c1c(O)ccn1C` it is 44 to 46 °C.
